US20250114460A1, “NOVEL PLK1 DEGRADATION INDUCING COMPOUND” (UPPTHERA, INC., priority 2021, published 2025)

What was measured:
Type in all cases: cell-based
PLK1 = molecular target: T1, PLK1 (Homo sapiens, UniProt P53350); test: Luciferase assay for PLK1 in HeLa LgBit (Plk1-HiBit KI) cell line; conditions: 300 nM compound, luminescence after 9 hours
T1 construct: endogenous in cells; host or cells: HeLa LgBit (Plk1-HiBit KI): HeLa stably expressing LgBit, with a CRISPR/Cas9 knock-in of HiBit at the endogenous PLK1 locus
Method in brief: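 HeLa cells stably expressing LgBit, with HiBit knocked in at the C-terminus of endogenous Plk1, released from a 24 h 2 mM thymidine block and grown 18 h. Endurazine added, then compound at 300 nM; luminescence tracked in real time, expressed as ratio to DMSO.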

NCI-H526 cell line = test: Cell viability assay for H526 cell (EZ-Cytox); conditions: Homo sapiens, NCI-H526, 120 h; H526 cells, 5 days, 3000 nM to 0.46 nM
Method in brief: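 NCI-H526 cells were exposed to compound in CO2 incubator culture for 5 days. Viability was read by EZ-Cytox absorbance at 450 nm after 3 min shaking, giving IC50 values.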

MRC-5 cell line = test: Cell viability assay for MRC-5 cell line (EZ-Cytox); conditions: Homo sapiens, MRC5, 120 h; MRC-5 normal cell line, 5 days, 10000 nM to 1.52 nM; N.D. = no cytotoxicity until 10 μM; read-out: Activity: IC50 value of Exemplary Compound to MRC-5 cell line
Experimental: 4. Cell Viability Assay for MRC-5 Cell Line
(1) Culture of MRC-5 Cell Line
Passage of cultured cells was maintained within P15.
(2) Treatment of Compounds of the Present Invention
Then, it was cultured in 37° C.
(3) Cytotoxicity Experiment
CO2 incubator for 4 hours.

T1 sequence (P53350 whole entry): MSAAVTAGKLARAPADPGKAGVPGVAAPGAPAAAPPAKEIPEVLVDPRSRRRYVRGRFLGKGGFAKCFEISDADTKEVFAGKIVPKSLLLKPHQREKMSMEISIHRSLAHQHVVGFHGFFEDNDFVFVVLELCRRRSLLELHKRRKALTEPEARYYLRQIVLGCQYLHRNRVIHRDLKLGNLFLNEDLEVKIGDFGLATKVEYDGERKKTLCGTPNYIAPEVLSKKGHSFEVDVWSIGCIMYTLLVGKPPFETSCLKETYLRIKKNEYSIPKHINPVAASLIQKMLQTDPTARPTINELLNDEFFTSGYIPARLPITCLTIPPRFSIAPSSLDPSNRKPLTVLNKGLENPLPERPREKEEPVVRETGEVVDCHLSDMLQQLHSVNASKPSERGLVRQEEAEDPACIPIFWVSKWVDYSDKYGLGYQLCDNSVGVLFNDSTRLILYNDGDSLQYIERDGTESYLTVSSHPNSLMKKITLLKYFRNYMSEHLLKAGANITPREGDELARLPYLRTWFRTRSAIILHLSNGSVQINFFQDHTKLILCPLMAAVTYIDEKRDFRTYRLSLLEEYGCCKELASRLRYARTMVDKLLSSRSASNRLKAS

Activity: ratio of the luminescense value of each Exemplary Compound treatment group to DMSO treatment group (PLK1)	Compound	IC50 (NCI-H526 cell line)	IC50 (MRC-5 cell line)
++ (++<0.6)	COc1cc(C(=O)NC2CCN(CCOCCOCCNc3cccc4c3CN(C3CCC(=O)NC3=O)C4=O)CC2)ccc1Nc1ncc2c(n1)N(C1CCCC1)CC(F)(F)C(=O)N2C (stereo not drawn) [Compound 18, 4-((9-cyclopentyl-7,7-difluoro-5-methyl-6-oxo-6,7,8,9-tetrahydro-5H-pyrimido[4,5-b][1,4]diazepin-2-yl)amino)-N-(1-(2-(2-(2-((2-(2,6-dioxopiperidin-3-yl)-1-oxoisoindolin-4-yl)amino)ethoxy)ethoxy)ethyl)piperidin-4-yl)-3-methoxybenzamide]	< 0.03 µM	> 10 µM
++ (++<0.6)	COc1cc(C(=O)NC2CCN(C(=O)COc3cccc4c3C(=O)N(C3CCC(=O)NC3=O)C4=O)CC2)ccc1Nc1ncc2c(n1)N(C1CCCC1)CC(F)(F)C(=O)N2C (stereo not drawn) [Compound 38, 4-((9-cyclopentyl-7,7-difluoro-5-methyl-6-oxo-6,7,8,9-tetrahydro-5H-pyrimido[4,5-b][1,4]diazepin-2-yl)amino)-N-(1-(2-((2-(2,6-dioxopiperidin-3-yl)-1,3-dioxoisoindolin-4-yl)oxy)acetyl)piperidin-4-yl)-3-methoxybenzamide]	< 0.2 µM	> 10 µM
++ (++<0.6)	COc1cc(C(=O)N[C@H]2CC[C@H](OC3CCN(c4cccc5c4C(=O)N(C4CCC(=O)NC4=O)C5=O)CC3)CC2)c(F)cc1Nc1ncc2c(n1)N(C1CCCC1)CC(F)(F)C(=O)N2C (stereo partly drawn) [Compound 115, 4-((9-cyclopentyl-7,7-difluoro-5-methyl-6-oxo-6,7,8,9-tetrahydro-5H-pyrimido[4,5-b][1,4]diazepin-2-yl)amino)-N-((1r,4r)-4-((1-(2-(2,6-dioxopiperidin-3-yl)-1,3-dioxoisoindolin-4-yl)piperidin-4-yl)oxy)cyclohexyl)-2-fluoro-5-methoxybenzamide]	< 0.4 µM	> 10 µM
+++ (+++: <0.3)	COc1cc(C(=O)NC2CCN(C(=O)CCC3CCN(c4cccc5c4C(=O)N(C4CCC(=O)NC4=O)C5=O)CC3)CC2)ccc1Nc1ncc2c(n1)N(C1CCCC1)CC(F)(F)C(=O)N2C (stereo not drawn) [Compound 62, 4-((9-cyclopentyl-7,7-difluoro-5-methyl-6-oxo-6,7,8,9-tetrahydro-5H-pyrimido[4,5-b][1,4]diazepin-2-yl)amino)-N-(1-(3-(1-(2-(2,6-dioxopiperidin-3-yl)-1,3-dioxoisoindolin-4-yl)piperidin-4-yl)propanoyl)piperidin-4-yl)-3-methoxybenzamide]	< 0.1 µM	> 10 µM
++ (++<0.6)	COc1cc(C(=O)N2CCC(CCN3CCN(c4ccc5c(c4)C(=O)N(C4CCC(=O)NC4=O)C5=O)CC3)CC2)ccc1Nc1ncc2c(n1)N(C1CCCC1)CC(F)(F)C(=O)N2C (stereo not drawn) [Compound 98, 5-(4-(2-(1-(4-((9-cyclopentyl-7,7-difluoro-5-methyl-6-oxo-6,7,8,9-tetrahydro-5H-pyrimido[4,5-b][1,4]diazepin-2-yl)amino)-3-methoxybenzoyl)piperidin-4-yl)ethyl)piperazin-1-yl)-2-(2,6-dioxopiperidin-3-yl)isoindoline-1,3-dione]	< 0.4 µM	> 10 µM

Compound	Activity: ratio of the luminescense value of each Exemplary Compound treatment group to DMSO treatment group (PLK1)	IC50 (NCI-H526 cell line)	IC50 (MRC-5 cell line)
COc1cc(C(=O)N2CCC(N3CC4(CCN(c5cc6c(cc5F)C(=O)N(C5CCC(=O)NC5=O)C6=O)CC4)C3)CC2)ccc1Nc1ncc2c(n1)N(C(C)C)CC(F)(F)C(=O)N2C (stereo not drawn) [Compound 215, 5-(2-(1-(4-((7,7-difluoro-9-isopropyl-5-methyl-6-oxo-6,7,8,9-tetrahydro-5H-pyrimido[4,5-b][1,4]diazepin-2-yl)amino)-3-methoxybenzoyl)piperidin-4-yl)-2,7-diazaspiro[3.5]nonan-7-yl)-2-(2,6-dioxopiperidin-3-yl)-6-fluoroisoindoline-1,3-dione]	++ (++<0.6)	< 0.4 µM	16.2 µM
COc1cc(C(=O)NN2CCC(N3CC4(CCN(c5cccc6c5C(=O)N(C5CCC(=O)NC5=O)C6=O)CC4)C3)CC2)ccc1Nc1ncc2c(n1)N(C(C)C)CC(F)(F)C(=O)N2C (stereo not drawn) [Compound 213, 4-((7,7-difluoro-9-isopropyl-5-methyl-6-oxo-6,7,8,9-tetrahydro-5H-pyrimido[4,5-b][1,4]diazepin-2-yl)amino)-N-(4-(7-(2-(2,6-dioxopiperidin-3-yl)-1,3-dioxoisoindolin-4-yl)-2,7-diazaspiro[3.5]nonan-2-yl)piperidin-1-yl)-3-methoxybenzamide]	++ (++<0.6)	< 0.03 µM	> 10 µM
